Paper PMC11209700, “In Silico Drug Repurposing Uncovered the Antiviral Potential of the Antiparasitic Drug Oxibendazole Against the Chikungunya Virus” (ACS Omega, 2024)
Starred links: 1 amine or outer side, 2 acyl side, 3 side chain; linkers in the order of their positions; H or OH if unused. Positions of bridges follow the written chain, without caps; N, C: chain ends. Non-standard residues stand in square brackets, D forms with d. Residues, ends and D or L forms follow the SMILES beside them. *: point of attachment. hTyr(3S-OH,4S-OH,3'-OSO3H) = N[C@H](C(=O)O)[C@H](O)[C@@H](O)c1ccc(O)c(OS(=O)(=O)O)c1; Orn(4R-OH,5R-OH) = O=C([C@H](C[C@@H](O)[C@@H](O)N[*:3])N[*:1])[*:2]; Pro(3S-OH,4S-Me) = C[C@H]1CN[C@H](C(=O)O)[C@H]1O; X1 = CCCCCOc1ccc(-c2cc(-c3ccc(C(=O)*)cc3)no2)cc1; Gln(3R-OH) = NC(=O)C[C@@H](O)[C@H](N)C(=O)O; Hyp = O=C(O)[C@@H]1C[C@@H](O)CN1

What was measured:
[1] = tested on: CHIKV BRA/RJ/18; assay: Antiviral evaluation against CHIKV BRA/RJ/18 replication in Vero cells (plaque assay); type: cell-based, Chikungunya virus; settings: for EC50 / inhibition at 50 µM: Chikungunya virus, Vero; for EC50: 24 h, read-out: CHIKV BRA/RJ/18 EC50; for CHIKV BRA/RJ/18 EC50: Vero cells, MOI 1, 24 h; for inhibition at 50 µM: read-out: CHIKV BRA/RJ/18 inhibition (%); for CHIKV BRA/RJ/18 SI (selectivity index): ratio between CC50 and EC50 values
[2] = Cytotoxicity by MTT assay in Vero cells; settings: African green monkey
[3] = tested on: CHIKV 181-25 strain; assay: Antiviral screening against CHIKV 181-25 replication in Vero cells (plaque assay); type: cell-based, Chikungunya virus; settings: inhibition rate of CHIKV replication at 50 μM, % relative to control, 24 hpi; for inhibition at 50 µM: Chikungunya virus; for CHIKV 181-25 inhibition (%): 50 µM
Experimental: DMSO (0.5%) was used as vehicle control, while CQ (50 μM) was used as a positive control due to its in vitro antiviral activity against CHIKV.[57]
Finally, the overlay medium was removed, and cells were fixed and stained with 10% formaldehyde and 0.2% crystal violet. Plaques were counted, and virus titers were determined as PFU/mL. Inhibition rates were determined by comparing the number of PFU of infected and treated cells and infected and untreated cells (100% infectivity).

[4] = tested on: CHIKV BRA/RJ/18; assay: Entry assay; settings: Chikungunya virus, read-out: inhibition rate in virus entry assay
[5] = tested on: CHIKV BRA/RJ/18; assay: Virus release assay; settings: 50 μM, 6 hpi
[6] = tested on: human herpesvirus 8; settings: read-out: EC50 against human herpesvirus 8; cited from earlier work
[7] = tested on: mice; settings: doses up to 10 g/kg; cited from earlier work
[8] = tested on: CHIKV BRA/RJ/18; assay: Time-of-drug addition assay; type: cell-based; settings: Chikungunya virus
[9] = tested on: CHIKV BRA/RJ/18; assay: Attachment assay; settings: Chikungunya virus, read-out: inhibition rate in attachment assay
[10] = tested on: Zika virus; settings: read-out: EC50 against Zika virus; cited from earlier work
[11] = tested on: rats; settings: doses up to 10 g/kg; cited from earlier work
[12] = single oral dose of 400 mg; cited from earlier work
[13] = tested on: CHIKV BRA/RJ/18; assay: Virucidal assay; type: cell-based, Chikungunya virus; settings: 50 μM, 2 × 10^5 PFU treated 2 h at 37 °C
[14] = tested on: CHIKV; settings: read-out: EC50 against CHIKV; cited from earlier work
[15] = tested on: CHIKV; settings: cited from earlier work

CCCSc1ccc2nc(NC(=O)OC)[nH]c2c1 [ABZ, albendazole]
EC50 [1]: > 50 µM
CHIKV BRA/RJ/18 EC50 [1]: none exhibited anti-CHIKV activity
CC50 at 72 h [2]: > 500 µM

CCCCCOC(=O)Nc1nc(=O)n([C@@H]2O[C@H](C)[C@@H](O)[C@H]2O)cc1F [CPB, capecitabine]
inhibition at 50 µM [3]: 0%
CHIKV 181-25 inhibition (%) [3]: did not present antiviral activity
CHIKV 181-25 inhibition (%) ([3]; listed as CPD): did not inhibit CHIKV replication

CCN(CC)CCCC(C)Nc1ccnc2cc(Cl)ccc12 (stereo not drawn) [CQ, chloroquine]
EC50 [1]: 47.5 ± 10.2 µM
inhibition at 50 µM [1]: 48.5 ± 11.7%
CHIKV BRA/RJ/18 SI (selectivity index) [1]: 9.9
CC50 at 72 h [2]: 469 ± 84.4 µM
inhibition at 50 µM [3]: 98.2 ± 0.2%

COC(=O)Nc1nc2ccc(Sc3ccccc3)cc2[nH]1 [FBZ, fenbendazole]
EC50 [1]: > 50 µM
CHIKV BRA/RJ/18 EC50 [1]: none exhibited anti-CHIKV activity
CC50 at 72 h [2]: > 500 µM

COC(=O)Nc1nc2ccc(C(=O)c3ccccc3)cc2[nH]1 [MBZ, mebendazole]
EC50 [1]: > 50 µM
CHIKV BRA/RJ/18 EC50 [1]: none exhibited anti-CHIKV activity
CC50 at 72 h [2]: > 500 µM

CCCOc1ccc2nc(NC(=O)OC)[nH]c2c1 [OBZ, oxibendazole]
inhibition at 50 µM [4]: 33.8%
intracellular/extracellular ratio of virus titers [5]: 3.78
EC50 [6]: 1.5 µM
lethality (LD50 not determinable) [7]: no deaths were reported
inhibition at 50 µM ([8]; read-out: inhibition rate in time-of-addition assay, 50 μM, added after 4 hpi until 10 hpi): ~40%
inhibition at 50 µM ([8]; read-out: inhibition rate in time-of-addition assay, 50 μM, added until 4 hpi): ~55%
EC50 [1]: 11.4 ± 3.2 µM
inhibition at 50 µM [1]: 61.8 ± 2.7%
CHIKV BRA/RJ/18 SI (selectivity index) [1]: >44.0
CC50 at 72 h [2]: > 500 µM
inhibition at 50 µM [9]: 13.1%
EC50 [10]: 0.7 µM
lethality (LD50 not determinable) [11]: no deaths were reported
side effects in clinical trials [12]: low frequency of side effects
virucidal effect [13]: no virucidal effects were observed
inhibition at 50 µM [3]: 66.4 ± 2.5%

CCCCCOc1ccc(-c2cc(-c3ccc(C(=O)N[C@H]4C[C@@H](O)[C@@H](O)NC(=O)[C@@H]5[C@@H](O)[C@@H](C)CN5C(=O)[C@H]([C@H](O)CC(N)=O)NC(=O)[C@H]([C@H](O)[C@@H](O)c5ccc(O)c(OS(=O)(=O)O)c5)NC(=O)[C@@H]5C[C@@H](O)CN5C(=O)[C@H]([C@@H](C)O)NC4=O)cc3)no2)cc1 [micafungin] (X1-[Orn(4R-OH,5R-OH)]T[Hyp][hTyr(3S-OH,4S-OH,3'-OSO3H)][Gln(3R-OH)][Pro(3S-OH,4S-Me)]; lactam 1-C)
EC50 [14]: 20.6 µM

CC(=O)Oc1ccccc1C(=O)Nc1ncc([N+](=O)[O-])s1 [nitazoxanide]
EC50 [14]: 2.96 µM

CCCCCCCCCCC[C@@H](C[C@@H]1OC(=O)[C@H]1CCCCCC)OC(=O)[C@H](CC(C)C)NC=O [orlistat]
EC50 [14]: 0.82 µM

CC(C)OC(=O)[C@H](C)N[P@](=O)(OC[C@H]1O[C@@H](n2ccc(=O)[nH]c2=O)[C@](C)(F)[C@@H]1O)Oc1ccccc1 [sofosbuvir]
effect on CHIKV infection in mice [15]: ameliorate CHIKV infection in mice
EC50 [14]: 2.7 µM

Cc1ccc(C(=O)Nc2ccc(S(=O)(=O)O)c3cc(S(=O)(=O)O)cc(S(=O)(=O)O)c23)cc1NC(=O)c1cccc(NC(=O)Nc2cccc(C(=O)Nc3cc(C(=O)Nc4ccc(S(=O)(=O)O)c5cc(S(=O)(=O)O)cc(S(=O)(=O)O)c45)ccc3C)c2)c1 [suramin]
effect on CHIKV infection in mice [15]: ameliorate CHIKV infection in mice
EC50 [14]: 21.5 µM

CCCc1nc2c(C)cc(-c3nc4ccccc4n3C)cc2n1Cc1ccc(-c2ccccc2C(=O)O)cc1 [telmisartan]
effect on CHIKV infection in mice [15]: ameliorate CHIKV infection in mice
EC50 [14]: 15.3 µM
